Laboratory results reported in US10081737B2, “Method for producing curing agent of coating and its application on coating” (SHANGHAI YAO HE BIOCHEMICAL TECHNOLOGY CO., LTD., priority 2016, dated 2018).

Key:
Type in all cases: physicochemical
[1] = Heat resistance of coating films, 220° C., 15 min; conditions: color difference compared with the color at 200° C., 10 min; less color differences indicate better properties
Procedure: (§1) To verify properties of the product of the invention, APLUS101, APLUS102, HAA and TGIC are individually mixed with the polyester powder and additives. These curing agents are added in amounts of 2-8 wt % of the polyester powder coatings.
(§2) The coatings are tested in the form of films and the tests are carried out in the same conditions.

[2] = MEK resistance tests, 24 h, gloss loss of coating films; conditions: coating film containing the named curing agent
Procedure: as §1, §2

[3] = QUV-A tests, 500 h, gloss retention of coating films; conditions: coating film containing the named curing agent
Procedure: as §1, §2

[4] = Gloss of the polyester powder coating films; conditions: polyester powder coating film containing the named curing agent (compositions of Table 1)
Procedure: as §1, §2

[5] = Neutral salt-spray tests, 300 h, on coating films; conditions: corrosion of the coating film; cell text wraps over r6-r8 (Slight corrosion / No corrosion)
Procedure: as §1, §2

[6] = Flow and leveling of the powder coatings; conditions: polyester powder coating containing the named curing agent
Procedure: as §1, §2

SMILES	Heat resistance, 220° C., 15 min [1]	MEK resistance tests, 24 h, gloss loss (%) [2] [%]	QUV-A tests, 500 h, gloss retention (%) [3] [%]	Gloss of the films [4]	Neutral salt-spray tests, 300 h [5]	Flow and leveling (cm) [6] [cm]
O=c1n(CC2CO2)c(=O)n(CC2CO2)c(=O)n1CC1CO1 (stereo not drawn) [TGIC, 1,3,5-Triglycidyl isocyanurate]	0.59	10.25	75.8	87.6	Slight	3.8
O=C(CCCCC(=O)N(CCO)CCO)N(CCO)CCO [HAA, N,N,N′,N′-Tetrakis (2-hydroxyethyl)adipamide]	1.15	8.16	72.7	84.5	Slight	3.1
